Data reported in patent US8834910B2, “Sustained release dispenser comprising two or more sex pheromone substances” (Shin-Etsu Chemical Co., Ltd., priority 2003, dated 2014).

experiment: Vapor pressure by the gas flow method (OECD guideline); assay type: physicochemical; conditions: head: 20° C.; text: gas flow method at 25° C.
Protocol: Chemical structure, relation with a target insect and carbon number of each component are listed in the pest control of the pear and peach in Japan. The vapor pressure was measured by the gas flow method at 25° C. according to the “Addendum to the OECD chemical test guideline, issues 7 and 8” (Adopted on Jul. 27, 1995).

| Vapor pressure (20° C.) (Pa) | SMILES |
| --- | --- |
| 0.100 | CC/C=C\CCCCCCCCCCOC(C)=O [Z-11-tetradecenyl acetate] |
| 0.267 | CCC/C=C\CCCCCCCOC(C)=O [Z-8-dodecenyl acetate] |
| 0.246 | C=CCCCCCCCCCCOC(C)=O [11-dodecenyl acetate] |
| 0.100 | CCCC/C=C\CCCCCCCCOC(C)=O [Z-9-tetradecenyl acetate] |
| 0.005 | CCCCCC/C=C\CCC(=O)CCCCCCCCC [Z-13-icosen-10-one] |
| 0.267 | CC/C=C\CCCCCCCCOC(C)=O [Z-9-dodecenyl acetate] |
| 0.980 | CCC/C=C\CCCCCCCO [Z-8-dodecene-1-ol] |
| 0.186 | CCC(C)CCCCCCCCCOC(C)=O (stereo not drawn) [10-methyldodecyl acetate] |
| 0.070 | CC/C=C\CCCCCCCCCCO [Z-11-tetradecene-1-ol] |
